Data: patent US20060160894A1, “Benzamides as ppar modulators” (LABORATORIOS S.A.L.V.A.T.,S.A., priority 2003, published 2006)
Where two headings read alike, the source gives them in different places.

Assays:
[1] = biological target: T1, PPARγ LBD (Homo sapiens, UniProt P37231); test: LBD-hPPARs transactivation assay (GAL4-LBD luciferase reporter in COS-7 cells); type: cell-based; settings: 48 h
T1 construct: expressed in transfected cells; host or cells: COS-7
T1 sequence (P37231 238-503 limits assumed): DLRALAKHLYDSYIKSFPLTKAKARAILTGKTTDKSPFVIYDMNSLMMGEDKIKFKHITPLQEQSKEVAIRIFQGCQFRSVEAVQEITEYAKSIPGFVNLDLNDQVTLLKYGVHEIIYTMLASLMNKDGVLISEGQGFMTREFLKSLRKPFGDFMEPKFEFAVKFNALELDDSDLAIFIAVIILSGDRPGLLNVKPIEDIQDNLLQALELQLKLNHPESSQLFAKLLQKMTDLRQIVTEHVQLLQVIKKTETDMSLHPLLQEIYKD
Description: LBD-hPPARs Transactivation Assay
COS-7 cells were cultivated in 24-well plates and transfected with the pFACMV plasmids that encode the chimeric proteins containing the GAL4 DNA binding domain fused to the PPARγ LBD. The reporter plasmid for the foregoing constructions was pFR-Luc, which contains five repetitions of the GAL4-response element in front of a promoter that controls the transcription of the luciferase gene. Lipofectamine was used as a transfection agent.
The plasmids of the chimeric receptors and the reporter gene were inserted in the cells by transitory transfection in COS-7 cells in culture.

[2] = biological target: T2, GST-hPPARγ2 (Homo sapiens, UniProt P37231); test: Assay of binding to the PPARγ2 ([3H]BRL-49853 displacement)
T2 construct: the complete cDNA of the […] human PPARs were cloned into pGEX4T2; made in house; host or cells: Escherichia coli BL21 (DE3)
T2 sequence (P37231 1-505): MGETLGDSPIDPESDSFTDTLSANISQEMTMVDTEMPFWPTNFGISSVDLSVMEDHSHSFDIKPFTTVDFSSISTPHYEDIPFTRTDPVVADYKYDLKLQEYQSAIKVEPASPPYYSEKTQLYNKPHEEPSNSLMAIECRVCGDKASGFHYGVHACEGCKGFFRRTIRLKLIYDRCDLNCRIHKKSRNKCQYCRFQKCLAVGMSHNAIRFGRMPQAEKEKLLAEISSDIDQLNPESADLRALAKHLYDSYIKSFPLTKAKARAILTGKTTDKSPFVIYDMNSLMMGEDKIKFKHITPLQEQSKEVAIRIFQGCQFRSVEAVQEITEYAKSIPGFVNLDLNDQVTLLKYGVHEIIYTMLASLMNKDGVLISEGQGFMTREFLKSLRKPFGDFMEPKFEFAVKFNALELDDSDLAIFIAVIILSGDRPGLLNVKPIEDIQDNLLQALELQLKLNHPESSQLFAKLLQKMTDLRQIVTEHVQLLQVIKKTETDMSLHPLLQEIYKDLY
Experimental: Assay of Binding to the PPARγ2
The cDNA encoding for the open reading frame of the hPPARγ2 is amplified by PCR (polymerase chain reaction) and inserted in the plasmid pGEX-4T-2.
The reaction mixture was transferred to a Multiscreen Durapore (Millipore) microplate containing glutathione-Sepharose 4B in every well. The reaction mixture was left to incubate with the resin during 10 min, and then centrifuged at 735 g during 2 min. To dissociate the receptor bound to the resin, reduced glutathione 10 mM is added and incubated during 10 min. The receptor was eluted by centrifugation. Then, 800 μL of scintillation liquid were added to the elution and the contained radioactivity was quantified by liquid scintillation spectroscopy (Microbeta Wallac, Perkin Elmer).

[3] = biological target: T3, GST-hPPARα (Homo sapiens, UniProt Q07869); test: GST-hPPARα binding ([3H]-GW2433 displacement)
T3 construct: the complete cDNA of the […] human PPARs were cloned into pGEX4T2; made in house; host or cells: Escherichia coli BL21 (DE3)
T3 sequence (Q07869 1-468): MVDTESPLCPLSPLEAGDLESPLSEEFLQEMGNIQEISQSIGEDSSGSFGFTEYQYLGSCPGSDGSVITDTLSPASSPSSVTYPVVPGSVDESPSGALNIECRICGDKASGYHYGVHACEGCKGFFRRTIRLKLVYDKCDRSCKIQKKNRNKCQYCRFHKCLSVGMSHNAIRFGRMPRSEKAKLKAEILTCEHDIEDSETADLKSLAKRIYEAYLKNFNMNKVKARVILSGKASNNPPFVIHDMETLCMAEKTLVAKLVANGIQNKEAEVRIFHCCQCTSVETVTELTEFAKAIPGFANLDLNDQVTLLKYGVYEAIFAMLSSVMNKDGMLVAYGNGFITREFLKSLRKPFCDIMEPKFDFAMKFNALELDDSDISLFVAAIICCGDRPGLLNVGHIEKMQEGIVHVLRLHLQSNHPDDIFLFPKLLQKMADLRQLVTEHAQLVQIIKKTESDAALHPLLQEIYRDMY
Description: Cloning of Human PPARα, PPARδ and PPARγ2
The human PPARs cDNAs were amplified through RT-PCR. For hPPARα, RNA was obtained from HepG2 cells treated with linoleic acid; for h PPARδ, RNA was obtained from untreated HepG2 cells; for hPPARγ2, RNA was obtained from human white adipose tissue. Each amplified fragment was cloned into pBluescript (Stratagene®) and sequenced. One clone for each construction was selected and used as template for further subcloning and PCR amplifications.
GST-Fused Protein Construction
To generate these chimeric proteins, the complete cDNA of the […] human PPARs were cloned into pGEX4T2 (Amersham Biosciences). The fragment was obtained from the pBluescript-cDNAs clones digested with endonucleases. To assess the plasmid identity and to ensure the in-phase cloning of the proteins, pGEXs constructions were sequenced. […] Receptor purity was visualized by SDS-PAGE and protein content was determined by Bradford method. […]
Using 96-well culture plates, PPARα or PPARδ (5 μg) were diluted to a total volume of 100 μL with buffer consisting of 50 mM HEPES (pH: 7.0), 50 mM KCl, 5 mM EDTA and 10 mM DTT, in the presence of [3H]-GW2433 (100 and 50 nM for PPARα and PPARδ, respectively). […] Eluted radioactivity was quantitated by liquid scintillation counting in a Microbeta counter (Perkin Elmer).

[4] = Table 19, GST-hPPARγ2, [3H]BRL-49853 100 nM, read-out: Affinity PPARγ(1)

Compound | Functional activity PPARγ [1] | Ki [2] | Ki [3] | Ki [2, 4]
O=C(N[C@@H](Cc1ccc(OCc2ccccc2)cc1)C(=O)O)c1ccc(OCc2ccccc2-c2ccccc2)cc1 [Example 184, (2S)-3-(4-Benzyloxyphenyl)-2-[4-(biphenyl-2-ylmethoxy)benzoylamino]propionic acid] | Antagonist | < 1000 nM | > 3000 nM | 
Cc1nc2ccccc2nc1OCCOc1ccc(C(=O)N[C@@H](Cc2ccc(F)cc2)C(=O)O)cc1 [Example 192, (2S)-3-(4-Fluorophenyl)-2-{4-[2-(3-methylquinoxalin-2-yloxy)ethoxy]benzoylamino}propionic acid] | Partial agonist |  |  | > 3000 nM
CCCCc1ccc(COc2ccc(C(=O)N[C@@H](CC3CCCCC3)C(=O)O)cc2)cc1 [Example 210, (2S)-2-[4-(4-Butylbenzyloxy)benzoylamino]-3-cyclohexylpropionic acid] | Agonist |  |  | < 1000 nM
CCCCc1ccc(COc2ccc(C(=O)N(CCC(=O)O)Cc3cccc(OCc4ccccc4)c3)cc2)cc1 [Example 218, 3-{(3-Benzyloxybenzyl)-[4-(4-butylbenzyloxy)benzoyl]amino}propionic acid] | Antagonist |  |  | < 1000 nM
CCCCOc1ccc(COc2ccc(C(=O)N[C@@H](CC3CCCCC3)C(=O)O)cc2)cc1 [Example 237, (2S)-2-[4-(4-Butoxybenzyloxy)benzoylamino]-3-cyclohexylpropionic acid] | Partial agonist |  |  | < 1000 nM
O=C(N[C@@H](Cc1ccc(OCc2ccccc2)cc1)C(=O)O)c1ccc(OCc2ccccc2Br)cc1 [Example 238, (2S)-3-(4-Benzyloxyphenyl)-2-[4-(2-bromobenzyloxy)benzoylamino]propionic acid] | Antagonist |  |  | < 1000 nM
Cc1ccccc1COc1ccc(C(=O)N[C@@H](Cc2ccc(OCc3ccccc3)cc2)C(=O)O)cc1 [Example 243, (2S)-3-(4-Benzyloxyphenyl)-2-[4-(2-methylbenzyloxy)benzoylamino]propionic acid] | Antagonist |  |  | < 1000 nM
Cc1nc2ccccc2nc1OCCOc1ccc(C(=O)N[C@@H](Cc2ccc(OCc3ccccc3)cc2)C(=O)N(C)C)cc1 [Example 267, N-[(1S)-2-(4-Benzyloxyphenyl)-1-dimethylcarbamoylethyl]-4-[2-(3-methylquinoxalin-2-yloxy)ethoxy]benzamide] | Partial agonist |  |  | 1000 to 3000 nM
